Where a name gives a salt, the structure may show the parent alone.
Key:
Assay type in all cases: physicochemical
[1] = Dynamic vapor sorption / hygroscopicity studies (automated water sorption analyzer); conditions: 25° C.; for relative humidity up to which the form is stable: sorption cycle
Method: The transformation of the monohydrate to the dihydrate form and vice versa occurs quickly and is well defined at 25° C. and at 40° C. This was shown by dynamic vapor sorption investigations. For example, during pre-drying of the monohydrate at 25° C. and 0% relative humidity, 4.0% water is released from the monohydrate. […] Between 20% and 40% relative humidity, one mole of water is absorbed, resulting in the formation of the monohydrate. The monohydrate is stable up to approximately 50% relative humidity and then is transformed into the dihydrate by absorption of a second mole of water between 50% and 60% relative humidity. The dihydrate is the stable form up to 98% relative humidity at 25° C. During the desorption cycle between 40% and 50% relative humidity, the transformation into the monohydrate takes place. The formed monohydrate is existent up to 10% relative humidity. Between 0% and 10% relative humidity the dehydration of the monohydrate to the dehydrated form II occurs. No significant differences between the two cycles were observed.
The hygroscopicity with respect to the transformation of the monohydrate and dihydrate was re-investigated between 45% and 55% relative humidity using smaller steps for the relative humidity. […] At 40° C. the reversible transformation between the monohydrate and the dihydrate is between 57% and 59% relative humidity, approximately 10% higher than at 25° C.
Also, the transformation of the anhydrate form of the potassium salt (Ia) to the hydrate form was shown by dynamic vapor sorption investigations at 25° C. Up to 40% relative humidity the anhydrate was stable. Between 40% and 60% relative humidity approximately two moles of water are absorbed, resulting in the formation of the dihydrate.
Data collection for the hygroscopicity studies was carried out in an automated water sorption analyzer. Approximately 20 mg of the investigated solid state form of the crystalline potassium salt (Ia) was exposed to a continuous flow of nitrogen with predetermined and constant relative humidity. The rate of sweep gas was set at 200 cm^3/min. For a basic assay, two full cycles (sorption/desorption) were measured at 25° C. The measurement was started at 0% relative humidity in order to remove surface water. Once the constant mass was achieved, the next humidity was automatically set. The water sorption/desorption was investigated in steps of 10% between 0% and 90% relative humidity under the criteria for initiation of the first step as set forth herein. Additionally, the sorption at about 98% relative humidity was investigated. Data was acquired using the DVSWin software. […]

[2] = Chemical stability of solid state forms under stress at 40° C./75% rH over 4 weeks (HPLC purity); conditions: for HPLC-purity: 40° C./75% RH; for chemical stability under stress (in words): 40° C./75% rH
Method: The chemical stability of the anhydrate and the monohydrate of the potassium salt of Formula (Ia) of the invention as well as the dehydrated form I of the potassium salt (Ia) of the invention were assessed by comparing the stability under stress at 40° C./75% rH over a period of 4 weeks.

[3] = Salt screening assays of the acid (IIa): stability of the salts
Description: The following describes the salt screening assays in more detail:
Many inorganic cations were investigated to determine their ability to form a stable crystalline salt of the acid (IIa), including potassium, sodium, calcium, aluminium, magnesium, lithium, and zinc.
Several organic amines were investigated, including N-methylglucamine, diethanolamine, ethylenediamine, choline, lysine, and arginine.
In addition to the foregoing, it was investigated to form a mixed salt of the acid of Formula (IIa) with polyvalent inorganic cations and organic acids.
In general, the salt screening assay included the variability of the following different test parameters:
i) Type of cation-compound utilized (e.g., as carbonates, hydroxides, methylates, ethylates).
ii) Type of solvent utilized.
iii) Specific addition or exclusion of water (to assist the formation of hydrates or anhydrates).
iv) Type of crystallization utilized (cooling crystallization, antisolvent crystallization, or evaporation crystallization, and combinations thereof).
v) Type of screening (manual screening as well as high throughput screening).

SMILES	relative humidity up to which the form is stable [1]	HPLC-purity ([2]; 0 weeks (start))	HPLC-purity ([2]; 2 weeks)	HPLC-purity ([2]; 4 weeks)	chemical stability under stress (in words) ([2]; 4 weeks)	water released during pre-drying ([1]; 0% relative humidity, gives dehydrated form II)	stability compared with other salts and the free acid (in words) [3]
O=C(O)COC[C@H](O)[C@H](O)/C=C/C=C/C#C/C=C/[C@H](O)COc1ccc(F)cc1 [dihydrate, potassium 2-((2S,3R,4E,6E,10E,12S)-13-(4-fluorophenoxy)-2,3,12-trihydroxytrideca-4,6,10-trien-6-ynyloxy)acetate]	up to 98 % relative humidity	–	–	–	–	–	–
O=C(O)COC[C@H](O)[C@H](O)/C=C/C=C/C#C/C=C/[C@H](O)COc1ccc(F)cc1 [K-salt, Monohydrate, potassium 2-((2S,3R,4E,6E,10E,12S)-13-(4-fluorophenoxy)-2,3,12-trihydroxytrideca-4,6,10-trien-6-ynyloxy)acetate]	approximately 50 % relative humidity	99.7%	99.6%	99.7%	no sign of degradation	4.0%	–
O=C(O)COC[C@H](O)[C@H](O)/C=C/C=C/C#C/C=C/[C@H](O)COc1ccc(F)cc1 [K-salt, dehydrated form I, potassium 2-((2S,3R,4E,6E,10E,12S)-13-(4-fluorophenoxy)-2,3,12-trihydroxytrideca-4,6,10-trien-6-ynyloxy)acetate]	–	97.8%	97.1%	95.3%	–	–	–
O=C(O)COC[C@H](O)[C@H](O)/C=C/C=C/C#C/C=C/[C@H](O)COc1ccc(F)cc1 [(Ia), potassium 2-((2S,3R,4E,6E,10E,12S)-13-(4-fluorophenoxy)-2,3,12-trihydroxytrideca-4,6,10-trien-6-ynyloxy)acetate]	–	–	–	–	–	–	substantially more stable than every other salt prepared
O=C(O)COC[C@H](O)[C@H](O)/C=C/C=C/C#C/C=C/[C@H](O)COc1ccc(F)cc1 [K-salt, Anhydrate, potassium 2-((2S,3R,4E,6E,10E,12S)-13-(4-fluorophenoxy)-2,3,12-trihydroxytrideca-4,6,10-trien-6-ynyloxy)acetate]	Up to 40 % relative humidity	99.6%	99.7%	99.7%	no sign of degradation	–	–
